Legend:
Mouse [1] = test: Analgesia, Phenylbenzoquinone test (Writing), p.o. (Mouse); assay type: in vivo; conditions: for Analgesia relative to Propoxyphene: footnote (b) to analgesia ED50 p.o.; for ED50: po, Phenylbenzoquinone test
Experimental: (§1) The in vivo activity of representative compounds of the present invention was determined as set forth in Table I below by administration to mice in pharmaceutically effective amounts.
Analgesia ED50 p.o.(a)(*)
(a) Phenylbenzoquinone test (Writing

Mouse [2] = test: Lowered rectal temp. p.o. (Mouse); assay type: in vivo; conditions: po
Experimental: as §1
Lowered rectal temp. ED50 p.o.(*)

[3] = Acute toxicity LD50 i.p. (Mouse); conditions: in vivo, ip
Experimental: as §1

Row | Compound | Analgesia relative to Propoxyphene (Mouse [1]) | ED50 (Mouse [1]) | ED50 (Mouse [2]) | LD50 [3]
1 | C[C@@H]1[C@H]2OC[C@H]3[C@@H]1C[C@@H](O)[C@@]3(C)O2 [compound 2455] | ≥ Propoxyphene | < 10 mg/kg | 10 mg/kg | 406 mg/kg
2 | CNC(=O)O[C@@H]1C[C@@H]2[C@H](C)[C@H]3OC[C@@H]2[C@]1(C)O3 [compound 2648] | – | < 10 mg/kg | < 100 mg/kg | 800 mg/kg
3 | CC(=O)O[C@H]1C[C@@H]2[C@H](C)[C@H]3OC[C@@H]2[C@]1(C)O3 [compound 2614] | – | < 50 mg/kg | 100 mg/kg | 822 mg/kg
4 | C[C@@H]1[C@H]2OC[C@H]3[C@@H]1C[C@H](O)[C@@]3(C)O2 [compound 2422] | – | < 50 mg/kg | 400 mg/kg | 920 mg/kg
5 | C[C@@H]1[C@H]2OC[C@H]3[C@@H]1CC(=O)[C@@]3(C)O2 [compound 2619] | ≥ Propoxyphene | < 10 mg/kg | 25 mg/kg | 1600 mg/kg
6 | COC1O[C@H]2O[C@]3(C)[C@H](O)C[C@H]([C@H]2C)[C@H]13 (some centres unmarked) [compound 1561] | – | 100 mg/kg | 100 mg/kg | > 800 mg/kg
7 | COC1O[C@H]2O[C@]3(C)[C@@H](O)C[C@H]([C@H]2C)[C@H]13 (some centres unmarked) [compound 1246] | – | 68 mg/kg | 100 mg/kg | > 800 mg/kg
8 | CNC(=O)O[C@H]1C[C@@H]2[C@H](C)[C@H]3OC[C@@H]2[C@]1(C)O3 [compound 2624] | – | < 50 mg/kg | 32 mg/kg | 739 mg/kg

From patent publication US4256642A, “Pharmaceutically active 2,9-dioxatricyclo[4,3,1,0^3,7 ] decanes” (Kali-Chemie Pharma GmbH, priority 1975, dated 1981)
